Where two headings read alike, the source gives them in different places.
Biological target: KRas Q61H mutant (Homo sapiens (Human), UniProt P01116, Q61H)
Assay: Ras GTP Binding Domain Inhibition Assay, KRas Q61H mutant
Protocol: A Ras Superfamily Activity Assay (as disclosed in International Application No. PCT/US2018/038613, filed Jun. 20, 2018, which is incorporated by reference in its entirety) was used as a specific assay to evaluate compounds against the following for the following Ras Superfamily proteins: KRas wild type, KRas Q61H mutant, KRas G12C mutant, KRas G12D mutant, Rac-1, and Rho-A.
Buffer-I: • 25 mM Tris-HCl, pH 7.4 • 27 mM KCl • 137 mM NaCl • 1 mM MgCl2 • 1 mM DTT
Buffer-II: • 50 mM Tris-HCl, pH 7.0 • 1 mM MgCl2 • 1 mM DTT
The small GTPases proteins: KRas wild type. KRas Q61H mutant, KRas G12C mutant, KRas G12D mutants, Rac-1, and Rho-A were expressed as His-tagged proteins. In addition, the Guanosine nucleotide Exchange Factor (GEF) Sos protein (residues 556-1049) was expressed as a His-tagged protein. In cells, the guanine nucleotide exchange factor Sos protein promotes activation of Ras proteins by stimulating an exchange of GDP for GTP. The inclusion of Sos to the Ras GTP binding domain inhibition assay may be considered as an alternative representation of physiological cellular conditions for evaluating the inhibitory activity of some of the tested small molecules.
For the assay, all purified small GTPases proteins were diluted in Buffer-I or Buffer-II to a final concentration of 10-30 μg/mL. 200 μL of each diluted protein was added to a nickel-coated 96-well plate and incubated overnight at 4° C. Then the protein solution was discarded and 200 μL of Buffer-I or Buffer-II was added to each well in the presence of 1% DMSO. Compounds to be tested were added to the protein-coated wells at final concentration of 20 μM, and incubated for 3 hours at room temperature with and without 10-30 μg/mL of Sos added to the final hour of the incubation. When performing IC50 measurements a serial dilution of all tested concentrations was added. Then Cy3-GTP or Cy5-GTP was added to each well to a final concentration of 100 nM. The labeled GTP was incubated for 45 minutes at room temperature. Following GTP incubation, wells were washed 3× in Buffer-I or Buffer-II and 200 μL of Buffer-I or Buffer-II was added to each well. Following washes, the amount of bound labeled-GTP was measured using a SpectraMax M3 (Molecular Devices).

[1] = + SOS, read-out: KRas Q61H mutant + SOS: % inh.
[2] = without SOS, read-out: KRas Q61H mutant: % inh.

KRas Q61H mutant, sequence (P01116 other isoform, or with tags, fused parts or gaps Q61H): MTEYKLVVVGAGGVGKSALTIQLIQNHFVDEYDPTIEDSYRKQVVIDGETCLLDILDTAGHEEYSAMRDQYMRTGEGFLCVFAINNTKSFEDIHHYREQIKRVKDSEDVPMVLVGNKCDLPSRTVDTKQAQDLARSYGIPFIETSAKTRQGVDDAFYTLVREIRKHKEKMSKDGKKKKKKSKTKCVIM

SMILES	inhibition at 20 µM [1] [%]	inhibition at 20 µM [2] [%]	IC50 (+ SOS) [µM]
CO[C@H]1CC[C@@H](Nc2nc(-c3nccn3C)nc3sc(-c4ccn(C)n4)c(-c4ccccc4)c23)C1 (racemic) [Compound 5, rac-N-((1R,3S)-3-Methoxycyclopentyl)-2-(1-methyl-1H-imidazol-2-yl)-6-(1-methyl-1H-pyrazol-3-yl)-5-phenylthieno[2,3-d]pyrimidin-4-amine]	76 to 100	26 to 45	
COCCNc1nc(-c2nccn2C)nc2sc(-c3ccccc3)c(-c3ccccc3)c12 [Compound 1, N-(2-Methoxyethyl)-2-(1-methyl-1H-imidazol-2-yl)-5,6-diphenylthieno[2,3-d]pyrimidin-4-amine]	46 to 75	46 to 75	
COCCCNc1nc(-c2nccn2C)nc2sc(-c3ccccc3)c(-c3ccccc3)c12 [Compound 3, N-(3-Methoxypropyl)-2-(1-methyl-1H-imidazol-2-yl)-5,6-diphenylthieno[2,3-d]pyrimidin-4-amine]	46 to 75	46 to 75	
COC1CCN(c2nc(-c3nccn3C)nc3sc(-c4ccn(C)n4)c(-c4ccccc4)c23)CC1 [Compound 6, 4-(4-Methoxypiperidin-1-yl)-2-(1-methyl-1H-imidazol-2-yl)-6-(1-methyl-1H-pyrazol-3-yl)-5-phenylthieno[2,3-d]pyrimidine]	46 to 75	46 to 75	
COCCNc1nc(-c2nccn2C)nc2sc(-c3cccc(OC)c3Cl)c(-c3ccccc3)c12 [Compound 9, 6-(2-Chloro-3-methoxyphenyl)-N-(2-methoxyethyl)-2-(1-methyl-1H-imidazol-2-yl)-5-phenylthieno[2,3-d]pyrimidin-4-amine]	76 to 100	46 to 75	

Further lines, results first:

inhibition at 20 µM [1] [%]	inhibition at 20 µM [2] [%]	IC50 (+ SOS) [µM]	SMILES
46 to 75	46 to 75		COc1cccc(-c2sc3nc(-c4nccn4C)nc(NC4CCC(OC)C4)c3c2C)c1F (racemic) [Compound 10, rac-6-(2-Fluoro-3-methoxyphenyl)-N-((1R,3S)-3-methoxycyclopentyl)-5-methyl-2-(1-methyl-1H-imidazol-2-yl)thieno[2,3-d]pyrimidin-4-amine and rac-6-(2-Fluoro-3-methoxyphenyl)-N-((1R,3R)-3-methoxycyclopentyl)-5-methyl-2-(1-methyl-1H-imidazol-2-yl)thieno[2,3-d]pyrimidin-4-amine]
76 to 100	76 to 100	5 to 10	CO[C@H]1CC[C@@H](Nc2nc(-c3nccn3C)nc3sc(-c4ccn(C(C)C)n4)c(C)c23)C1 (racemic) [Compound 12, rac-6-(1-Isopropyl-1H-pyrazol-3-yl)-N-((1R,3S)-3-methoxycyclopentyl)-5-methyl-2-(1-methyl-1H-imidazol-2-yl)thieno[2,3-d]pyrimidin-4-amine]
76 to 100	46 to 75	1 to 4.99	CO[C@@H]1CC[C@H](Nc2nc(-c3nccn3C)nc3sc(-c4ccn(C(C)C)n4)c(-c4ccccc4)c23)C1 (single isomer, unassigned) [Compound 11]
76 to 100	26 to 45		COCCNc1nc(-c2nccn2C)nc2sc(-c3cccc(OC)c3Cl)c(-c3ccc(OC)cc3)c12 [Compound 7, 6-(2-Chloro-3-methoxyphenyl)-N-(2-methoxyethyl)-5-(4-methoxyphenyl)-2-(1-methyl-1H-imidazol-2-yl)thieno[2,3-d]pyrimidin-4-amine]
76 to 100	46 to 75		COCCNc1nc(-c2cn(C)cn2)nc2sc(-c3cccc(OC)c3Cl)c(-c3ccc(OC)cc3)c12 [Compound 8, 6-(2-Chloro-3-methoxyphenyl)-N-(2-methoxyethyl)-5-(4-methoxyphenyl)-2-(1-methyl-1H-imidazol-4-yl)thieno[2,3-d]pyrimidin-4-amine]
